Results published in publication PMC5622171 (Nature Communications, 2017).

Assays:
Assay in all cases: KINOMEscan kinase profiling
Format in all cases: binding
[1] = target: T1, ACVR1B (Homo sapiens, UniProt P36896); conditions: read-out: %Inhibition by 10 μM SPA70
T1 construct: purchased DiscoverX (Ambit Biosciences) KINOMEscan
Method in brief: (§1)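 KINOMEscan profiling followed a published protocol. Kinases whose inhibition exceeded a set cut-off were then tested in a dilution series beginning at 30 µM.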

[2] = target: T2, ADCK4 (Homo sapiens, UniProt Q96D53); conditions: read-out: %Inhibition by 10 μM SPA70
T2 construct: purchased DiscoverX (Ambit Biosciences) KINOMEscan
Method in brief: as §1

[3] = target: T3, AKT1 (Homo sapiens, UniProt P31749); conditions: read-out: %Inhibition by 10 μM SPA70
T3 construct: purchased DiscoverX (Ambit Biosciences) KINOMEscan
Method in brief: as §1

[4] = target: T4, ASK2 (Homo sapiens, UniProt O95382); conditions: read-out: %Inhibition by 10 μM SPA70
T4 construct: purchased DiscoverX (Ambit Biosciences) KINOMEscan
Method in brief: as §1

[5] = target: T5, BRSK1 (Homo sapiens, UniProt Q8TDC3); conditions: read-out: %Inhibition by 10 μM SPA70
T5 construct: purchased DiscoverX (Ambit Biosciences) KINOMEscan
T5 sequence (Q8TDC3 whole entry): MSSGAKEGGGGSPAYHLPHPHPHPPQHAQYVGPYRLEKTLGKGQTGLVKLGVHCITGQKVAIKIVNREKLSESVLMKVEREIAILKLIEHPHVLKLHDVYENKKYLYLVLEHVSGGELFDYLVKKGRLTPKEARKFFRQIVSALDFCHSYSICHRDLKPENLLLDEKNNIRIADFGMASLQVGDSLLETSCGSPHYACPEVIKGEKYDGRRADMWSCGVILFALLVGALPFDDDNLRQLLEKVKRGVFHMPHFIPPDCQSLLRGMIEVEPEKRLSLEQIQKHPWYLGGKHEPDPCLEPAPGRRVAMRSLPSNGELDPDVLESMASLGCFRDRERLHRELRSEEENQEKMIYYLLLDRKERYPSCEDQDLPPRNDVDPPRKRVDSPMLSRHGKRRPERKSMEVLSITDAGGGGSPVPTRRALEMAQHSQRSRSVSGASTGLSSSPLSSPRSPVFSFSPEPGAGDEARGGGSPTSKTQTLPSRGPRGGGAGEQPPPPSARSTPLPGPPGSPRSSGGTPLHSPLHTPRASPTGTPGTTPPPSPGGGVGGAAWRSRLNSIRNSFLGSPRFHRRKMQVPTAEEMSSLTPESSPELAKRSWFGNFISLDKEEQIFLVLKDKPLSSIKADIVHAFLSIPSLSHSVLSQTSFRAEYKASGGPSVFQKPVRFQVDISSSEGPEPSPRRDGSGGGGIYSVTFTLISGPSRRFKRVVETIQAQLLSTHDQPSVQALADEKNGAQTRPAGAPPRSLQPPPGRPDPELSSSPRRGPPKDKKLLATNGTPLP
Method in brief: as §1

[6] = target: T6, CAMK4 (Homo sapiens, UniProt Q16566); conditions: read-out: %Inhibition by 10 μM SPA70
T6 construct: purchased DiscoverX (Ambit Biosciences) KINOMEscan
Method in brief: as §1

[7] = target: T7, CAMKK1 (Homo sapiens, UniProt Q8N5S9); conditions: read-out: %Inhibition by 10 μM SPA70
T7 construct: purchased DiscoverX (Ambit Biosciences) KINOMEscan
Method in brief: as §1

[8] = target: T8, CDK11 (Homo sapiens, UniProt Q9BWU1)
T8 construct: purchased DiscoverX (Ambit Biosciences) KINOMEscan
T8 sequence (Q9BWU1 whole entry): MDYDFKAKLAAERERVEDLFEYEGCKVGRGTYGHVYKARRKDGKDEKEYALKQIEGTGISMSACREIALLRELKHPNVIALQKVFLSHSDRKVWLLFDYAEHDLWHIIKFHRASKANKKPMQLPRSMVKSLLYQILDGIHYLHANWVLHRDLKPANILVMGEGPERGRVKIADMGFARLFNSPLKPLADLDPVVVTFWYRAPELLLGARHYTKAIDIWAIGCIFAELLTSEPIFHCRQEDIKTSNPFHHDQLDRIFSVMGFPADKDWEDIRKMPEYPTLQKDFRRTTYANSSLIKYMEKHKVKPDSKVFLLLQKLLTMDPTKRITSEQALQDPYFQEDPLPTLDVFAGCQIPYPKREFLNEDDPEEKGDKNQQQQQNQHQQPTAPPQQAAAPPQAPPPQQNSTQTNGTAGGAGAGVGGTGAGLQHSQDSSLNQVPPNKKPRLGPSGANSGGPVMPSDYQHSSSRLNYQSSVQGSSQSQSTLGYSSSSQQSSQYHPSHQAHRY
Method in brief: as §1

[9] = target: T9, CDK4-cyclinD3 (Homo sapiens, UniProt P11802); conditions: read-out: %Inhibition by 10 μM SPA70
T9 construct: purchased DiscoverX (Ambit Biosciences) KINOMEscan
Method in brief: as §1

[10] = target: T10, CDK5 (Homo sapiens, UniProt Q00535)
T10 construct: purchased DiscoverX (Ambit Biosciences) KINOMEscan
T10 sequence (Q00535 whole entry): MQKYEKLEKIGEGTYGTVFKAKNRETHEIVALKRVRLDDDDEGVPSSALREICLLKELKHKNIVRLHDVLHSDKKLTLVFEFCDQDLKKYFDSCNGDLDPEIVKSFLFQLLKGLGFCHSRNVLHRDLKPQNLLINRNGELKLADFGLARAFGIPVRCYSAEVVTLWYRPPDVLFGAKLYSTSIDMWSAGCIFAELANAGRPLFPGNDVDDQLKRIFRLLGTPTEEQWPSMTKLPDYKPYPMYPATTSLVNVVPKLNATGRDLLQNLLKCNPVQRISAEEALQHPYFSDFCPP
Method in brief: as §1

[11] = target: T11, CDKL1 (Homo sapiens, UniProt Q00532); conditions: read-out: %Inhibition by 10 μM SPA70
T11 construct: purchased DiscoverX (Ambit Biosciences) KINOMEscan
Method in brief: as §1

[12] = target: T12, DCAMKL2 (Homo sapiens, UniProt Q8N568); conditions: read-out: %Inhibition by 10 μM SPA70
T12 construct: purchased DiscoverX (Ambit Biosciences) KINOMEscan
Method in brief: as §1

[13] = target: T13, DRAK2 (Homo sapiens, UniProt O94768); conditions: read-out: %Inhibition by 10 μM SPA70
T13 construct: purchased DiscoverX (Ambit Biosciences) KINOMEscan
Method in brief: as §1

[14] = target: T14, ERK2 (Homo sapiens, UniProt P28482); conditions: read-out: %Inhibition by 10 μM SPA70
T14 construct: purchased DiscoverX (Ambit Biosciences) KINOMEscan
Method in brief: as §1

[15] = target: T15, ERK4 (Homo sapiens, UniProt P31152); conditions: read-out: %Inhibition by 10 μM SPA70
T15 construct: purchased DiscoverX (Ambit Biosciences) KINOMEscan
Method in brief: as §1

[16] = target: T16, FLT4 (Homo sapiens, UniProt P35916); conditions: read-out: %Inhibition by 10 μM SPA70
T16 construct: purchased DiscoverX (Ambit Biosciences) KINOMEscan
Method in brief: as §1

[17] = target: T17, INSR (Homo sapiens, UniProt P06213); conditions: read-out: %Inhibition by 10 μM SPA70
T17 construct: purchased DiscoverX (Ambit Biosciences) KINOMEscan
Method in brief: as §1

[18] = target: T18, INSRR (Homo sapiens, UniProt P14616); conditions: read-out: %Inhibition by 10 μM SPA70
T18 construct: purchased DiscoverX (Ambit Biosciences) KINOMEscan
Method in brief: as §1

[19] = target: T19, JAK1(JH1domain-catalytic) (Homo sapiens, UniProt P23458)
T19 construct: JAK1(JH1domain-catalytic); purchased DiscoverX (Ambit Biosciences) KINOMEscan
T19 sequence (P23458 875-1154 limits assumed): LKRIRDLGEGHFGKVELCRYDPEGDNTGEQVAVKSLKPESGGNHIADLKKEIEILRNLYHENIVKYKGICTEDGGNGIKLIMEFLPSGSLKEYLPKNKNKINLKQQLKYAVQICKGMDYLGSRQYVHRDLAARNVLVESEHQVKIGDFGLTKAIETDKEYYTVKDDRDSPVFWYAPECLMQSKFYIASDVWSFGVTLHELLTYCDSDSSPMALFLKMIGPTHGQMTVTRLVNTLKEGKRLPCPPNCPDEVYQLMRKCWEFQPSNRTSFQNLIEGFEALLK
Method in brief: as §1

[20] = target: T20, LRRK2 (Homo sapiens, UniProt Q5S007); conditions: read-out: %Inhibition by 10 μM SPA70
T20 construct: purchased DiscoverX (Ambit Biosciences) KINOMEscan
Method in brief: as §1

[21] = target: T21, MAP3K3 (Homo sapiens, UniProt Q99759); conditions: read-out: %Inhibition by 10 μM SPA70
T21 construct: purchased DiscoverX (Ambit Biosciences) KINOMEscan
Method in brief: as §1

[22] = target: T22, MAP3K4 (Homo sapiens, UniProt Q9Y6R4); conditions: read-out: %Inhibition by 10 μM SPA70
T22 construct: purchased DiscoverX (Ambit Biosciences) KINOMEscan
Method in brief: as §1

[23] = target: T23, MAP4K3 (Homo sapiens, UniProt Q8IVH8)
T23 construct: purchased DiscoverX (Ambit Biosciences) KINOMEscan
T23 sequence (Q8IVH8 whole entry): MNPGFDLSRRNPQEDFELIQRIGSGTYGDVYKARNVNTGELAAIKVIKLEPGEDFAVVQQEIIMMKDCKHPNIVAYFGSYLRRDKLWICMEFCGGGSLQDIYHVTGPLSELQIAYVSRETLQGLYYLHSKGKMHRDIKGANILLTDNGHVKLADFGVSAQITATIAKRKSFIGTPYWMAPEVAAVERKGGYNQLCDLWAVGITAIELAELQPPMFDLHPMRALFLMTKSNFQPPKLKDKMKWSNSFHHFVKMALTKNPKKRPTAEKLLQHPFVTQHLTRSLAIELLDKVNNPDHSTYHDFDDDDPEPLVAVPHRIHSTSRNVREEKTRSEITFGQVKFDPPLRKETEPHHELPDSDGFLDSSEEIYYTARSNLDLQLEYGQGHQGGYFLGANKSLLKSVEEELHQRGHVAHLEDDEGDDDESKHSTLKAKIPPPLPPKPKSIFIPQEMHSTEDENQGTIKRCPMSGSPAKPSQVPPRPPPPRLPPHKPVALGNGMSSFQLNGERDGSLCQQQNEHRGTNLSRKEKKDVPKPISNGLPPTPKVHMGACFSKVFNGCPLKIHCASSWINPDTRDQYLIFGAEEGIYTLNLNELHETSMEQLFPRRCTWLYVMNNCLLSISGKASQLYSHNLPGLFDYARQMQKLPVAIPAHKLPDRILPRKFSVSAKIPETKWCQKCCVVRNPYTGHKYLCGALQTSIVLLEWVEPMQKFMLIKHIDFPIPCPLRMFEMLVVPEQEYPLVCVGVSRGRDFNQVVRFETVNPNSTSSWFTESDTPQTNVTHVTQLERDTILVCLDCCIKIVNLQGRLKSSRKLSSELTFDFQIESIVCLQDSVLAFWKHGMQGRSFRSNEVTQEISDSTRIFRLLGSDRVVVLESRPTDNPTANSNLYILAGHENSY
Method in brief: as §1

[24] = target: T24, MARK4 (Homo sapiens, UniProt Q96L34)
T24 construct: purchased DiscoverX (Ambit Biosciences) KINOMEscan
Method in brief: as §1

[25] = target: T25, MTOR (Homo sapiens, UniProt P42345); conditions: read-out: %Inhibition by 10 μM SPA70
T25 construct: purchased DiscoverX (Ambit Biosciences) KINOMEscan
Method in brief: as §1

[26] = target: T26, NEK9 (Homo sapiens, UniProt Q8TD19); conditions: read-out: %Inhibition by 10 μM SPA70
T26 construct: purchased DiscoverX (Ambit Biosciences) KINOMEscan
Method in brief: as §1

[27] = target: T27, PAK1 (Homo sapiens, UniProt Q13153); conditions: read-out: %Inhibition by 10 μM SPA70
T27 construct: purchased DiscoverX (Ambit Biosciences) KINOMEscan
Method in brief: as §1

[28] = target: T28, PDPK1 (Homo sapiens, UniProt O15530); conditions: read-out: %Inhibition by 10 μM SPA70
T28 construct: purchased DiscoverX (Ambit Biosciences) KINOMEscan
Method in brief: as §1

[29] = target: T29, PKMYT1 (Homo sapiens, UniProt Q99640)
T29 construct: purchased DiscoverX (Ambit Biosciences) KINOMEscan
T29 sequence (Q99640 whole entry): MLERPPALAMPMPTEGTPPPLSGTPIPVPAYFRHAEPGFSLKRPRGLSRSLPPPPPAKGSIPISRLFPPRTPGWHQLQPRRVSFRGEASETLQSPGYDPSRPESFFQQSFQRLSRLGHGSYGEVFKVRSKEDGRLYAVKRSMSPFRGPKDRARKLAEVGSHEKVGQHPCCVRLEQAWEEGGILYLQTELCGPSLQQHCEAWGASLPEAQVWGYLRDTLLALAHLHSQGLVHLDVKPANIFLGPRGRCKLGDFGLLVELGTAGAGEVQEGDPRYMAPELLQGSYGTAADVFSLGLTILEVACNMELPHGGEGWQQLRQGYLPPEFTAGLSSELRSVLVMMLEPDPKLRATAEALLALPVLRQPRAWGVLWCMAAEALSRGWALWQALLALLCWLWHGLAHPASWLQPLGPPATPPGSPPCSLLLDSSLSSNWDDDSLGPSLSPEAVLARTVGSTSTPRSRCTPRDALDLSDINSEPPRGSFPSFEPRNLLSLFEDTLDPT
Method in brief: as §1

[30] = target: T30, PRKG1 (Homo sapiens, UniProt Q13976); conditions: read-out: %Inhibition by 10 μM SPA70
T30 construct: purchased DiscoverX (Ambit Biosciences) KINOMEscan
Method in brief: as §1

[31] = target: T31, PRKG2 (Homo sapiens, UniProt Q13237); conditions: read-out: %Inhibition by 10 μM SPA70
T31 construct: purchased DiscoverX (Ambit Biosciences) KINOMEscan
Method in brief: as §1

[32] = target: T32, SRC (Homo sapiens, UniProt P12931); conditions: read-out: %Inhibition by 10 μM SPA70
T32 construct: purchased DiscoverX (Ambit Biosciences) KINOMEscan
Method in brief: as §1

[33] = target: T33, STK16 (Homo sapiens, UniProt O75716); conditions: read-out: %Inhibition by 10 μM SPA70
T33 construct: purchased DiscoverX (Ambit Biosciences) KINOMEscan
Method in brief: as §1

[34] = target: T34, STK39 (Homo sapiens, UniProt Q9UEW8); conditions: read-out: %Inhibition by 10 μM SPA70
T34 construct: purchased DiscoverX (Ambit Biosciences) KINOMEscan
Method in brief: as §1

[35] = target: T35, TEC (Homo sapiens, UniProt P42680); conditions: read-out: %Inhibition by 10 μM SPA70
T35 construct: purchased DiscoverX (Ambit Biosciences) KINOMEscan
Method in brief: as §1

[36] = target: T36, TIE1 (Homo sapiens, UniProt P35590); conditions: read-out: %Inhibition by 10 μM SPA70
T36 construct: purchased DiscoverX (Ambit Biosciences) KINOMEscan
T36 sequence (P35590 22-1138): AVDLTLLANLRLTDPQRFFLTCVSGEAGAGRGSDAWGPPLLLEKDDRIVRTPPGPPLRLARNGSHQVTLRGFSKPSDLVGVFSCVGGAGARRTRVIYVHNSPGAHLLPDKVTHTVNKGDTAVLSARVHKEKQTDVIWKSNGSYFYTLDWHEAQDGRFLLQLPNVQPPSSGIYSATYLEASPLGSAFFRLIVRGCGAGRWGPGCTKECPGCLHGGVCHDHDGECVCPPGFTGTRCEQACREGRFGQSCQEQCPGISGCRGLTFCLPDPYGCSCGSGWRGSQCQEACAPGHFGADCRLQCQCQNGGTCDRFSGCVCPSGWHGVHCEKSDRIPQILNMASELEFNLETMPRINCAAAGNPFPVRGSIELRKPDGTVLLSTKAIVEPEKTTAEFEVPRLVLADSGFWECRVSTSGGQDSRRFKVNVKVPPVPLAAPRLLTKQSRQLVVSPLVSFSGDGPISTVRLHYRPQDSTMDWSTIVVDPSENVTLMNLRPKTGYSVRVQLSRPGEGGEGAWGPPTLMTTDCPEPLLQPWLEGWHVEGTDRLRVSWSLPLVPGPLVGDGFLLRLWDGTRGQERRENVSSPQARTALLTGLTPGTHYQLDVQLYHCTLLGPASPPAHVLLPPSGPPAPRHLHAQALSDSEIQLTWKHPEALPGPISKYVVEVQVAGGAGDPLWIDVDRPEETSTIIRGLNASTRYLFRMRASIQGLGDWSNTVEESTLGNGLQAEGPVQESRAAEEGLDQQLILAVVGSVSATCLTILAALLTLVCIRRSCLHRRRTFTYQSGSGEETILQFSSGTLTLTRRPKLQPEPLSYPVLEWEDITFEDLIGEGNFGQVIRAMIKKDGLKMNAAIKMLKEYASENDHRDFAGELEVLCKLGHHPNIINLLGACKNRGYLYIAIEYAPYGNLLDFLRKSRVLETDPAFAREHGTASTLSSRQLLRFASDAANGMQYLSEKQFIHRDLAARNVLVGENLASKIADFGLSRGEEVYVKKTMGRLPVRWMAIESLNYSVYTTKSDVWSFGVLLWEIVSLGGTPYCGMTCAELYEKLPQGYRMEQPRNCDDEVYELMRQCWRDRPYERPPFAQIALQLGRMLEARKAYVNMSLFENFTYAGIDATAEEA
Method in brief: as §1

[37] = target: T37, TNK2 (Homo sapiens, UniProt Q07912); conditions: read-out: %Inhibition by 10 μM SPA70
T37 construct: purchased DiscoverX (Ambit Biosciences) KINOMEscan
Method in brief: as §1

[38] = target: T38, TRPM6 (Homo sapiens, UniProt Q9BX84); conditions: read-out: %Inhibition by 10 μM SPA70
T38 construct: purchased DiscoverX (Ambit Biosciences) KINOMEscan
Method in brief: as §1

[39] = target: T39, VRK2 (Homo sapiens, UniProt Q86Y07); conditions: read-out: %Inhibition by 10 μM SPA70
T39 construct: purchased DiscoverX (Ambit Biosciences) KINOMEscan
Method in brief: as §1

[40] = target: T40, YANK2 (Homo sapiens, UniProt Q9NY57); conditions: read-out: %Inhibition by 10 μM SPA70
T40 construct: purchased DiscoverX (Ambit Biosciences) KINOMEscan
Method in brief: as §1

[41] = target: T41, YANK3 (Homo sapiens, UniProt Q86UX6); conditions: read-out: %Inhibition by 10 μM SPA70
T41 construct: purchased DiscoverX (Ambit Biosciences) KINOMEscan
Method in brief: as §1

[42] = target: T42, ZAP70 (Homo sapiens, UniProt P43403); conditions: read-out: %Inhibition by 10 μM SPA70
T42 construct: purchased DiscoverX (Ambit Biosciences) KINOMEscan
T42 sequence (P43403 whole entry): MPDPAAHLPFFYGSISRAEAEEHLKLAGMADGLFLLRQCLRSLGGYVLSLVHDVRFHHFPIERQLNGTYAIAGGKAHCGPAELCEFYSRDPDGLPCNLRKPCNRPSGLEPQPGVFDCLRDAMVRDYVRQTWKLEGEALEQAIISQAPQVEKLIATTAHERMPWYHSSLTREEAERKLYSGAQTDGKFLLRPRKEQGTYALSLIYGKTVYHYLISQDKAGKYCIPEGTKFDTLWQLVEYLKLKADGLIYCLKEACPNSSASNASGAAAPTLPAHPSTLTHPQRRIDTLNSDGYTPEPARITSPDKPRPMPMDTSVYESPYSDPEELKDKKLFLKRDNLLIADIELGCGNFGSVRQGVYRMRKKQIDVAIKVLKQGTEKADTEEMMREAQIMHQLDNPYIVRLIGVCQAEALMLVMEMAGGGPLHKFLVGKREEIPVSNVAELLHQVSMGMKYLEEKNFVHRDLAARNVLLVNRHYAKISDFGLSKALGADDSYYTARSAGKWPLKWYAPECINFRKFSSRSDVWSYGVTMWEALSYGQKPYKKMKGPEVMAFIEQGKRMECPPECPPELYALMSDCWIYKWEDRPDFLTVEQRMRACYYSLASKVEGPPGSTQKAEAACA
Method in brief: as §1

Structure (SMILES): COc1ccc(OC)c(-n2nnc(S(=O)(=O)c3ccc(C(C)(C)C)cc3)c2C)c1 [SPA70]
- inhibition at 10 µM [1]: 0%
- inhibition at 10 µM [2]: 16%
- inhibition at 10 µM [3]: 0%
- inhibition at 10 µM [4]: 0%
- inhibition at 10 µM [5]: 8%
- inhibition at 10 µM [6]: 0%
- inhibition at 10 µM [7]: 1%
- %Inhibition by 10 μM SPA70 [8]: 0%
- inhibition at 10 µM [9]: 19%
- %Inhibition by 10 μM SPA70 [10]: not inhibited
- inhibition at 10 µM ([10]; read-out: %Inhibition by 10 μM SPA70): 0%
- inhibition at 10 µM [11]: 9%
- inhibition at 10 µM [12]: 0%
- inhibition at 10 µM [13]: 5%
- inhibition at 10 µM [14]: 0%
- inhibition at 10 µM [15]: 0%
- inhibition at 10 µM [16]: 2%
- inhibition at 10 µM [17]: 0%
- inhibition at 10 µM [18]: 0%
- %Inhibition by 10 μM SPA70 [19]: 19%
- inhibition at 10 µM [20]: 0%
- inhibition at 10 µM [21]: 16%
- inhibition at 10 µM [22]: 0%
- %Inhibition by 10 μM SPA70 [23]: 0%
- %Inhibition by 10 μM SPA70 [24]: 0%
- inhibition at 10 µM [25]: 0%
- inhibition at 10 µM [26]: 0%
- inhibition at 10 µM [27]: 0%
- inhibition at 10 µM [28]: 0%
- %Inhibition by 10 μM SPA70 [29]: 38%
- inhibition at 10 µM [30]: 0%
- inhibition at 10 µM [31]: 12%
- inhibition at 10 µM [32]: 0%
- inhibition at 10 µM [33]: 0%
- inhibition at 10 µM [34]: 7%
- inhibition at 10 µM [35]: 0%
- inhibition at 10 µM [36]: 0%
- inhibition at 10 µM [37]: 0%
- inhibition at 10 µM [38]: 31%
- inhibition at 10 µM [39]: 0%
- inhibition at 10 µM [40]: 0%
- inhibition at 10 µM [41]: 0%
- inhibition at 10 µM [42]: 22%
